Experiments:
OR11A1 = OR11A1 (Homo sapiens, UniProt Q9GZK7); test: Cell-based OR activation assay (cAMP accumulation); set-up: expressed in transfected cells; host or cells: HEK293T expressing human Golf; details: FIG. 5; OR-dependent accumulation of cAMP
Olfr339 = test: Cell-based OR activation assay (cAMP accumulation); set-up: species or system mouse; details: FIG. 5; OR-dependent accumulation of cAMP
Olfr96 = test: Cell-based OR activation assay (cAMP accumulation); set-up: species or system mouse; details: FIG. 5; OR-dependent accumulation of cAMP
Olfr1487 = test: Cell-based OR activation assay (cAMP accumulation); set-up: species or system mouse; details: FIG. 5; OR-dependent accumulation of cAMP
Olfr1322 = test: Cell-based OR activation assay (cAMP accumulation); set-up: species or system mouse; details: FIG. 5; OR-dependent accumulation of cAMP
[1] = tested on: T1, OR11A1 or OR2M3 olfactory receptor; test: Geonol olfactory receptor antagonist cell-based inhibitory dose-response assay; set-up: species or system human; details: Table 2; geonol induced receptor activity, geonol at EC50
T1 construct: fused on or other part: Possibly N-terminal FLAG, Rho and/or Lucy tags

human sensory panel = test: Sensory evaluation of geonol earthy/moss odor in binary mixtures with antagonists; format: in vivo; details: percentage of geonol malodor (earthy/moss odor) remaining in binary iso-intense mixture vs REF; * = statistically different from geonol alone
Excerpt: Sensory Evaluation: Five 16 oz glass jars containing either REF (geonol only), geonol only control, antagonist only, mixture of geonol and isointense antagonist, or mixture of geonol and low intensity antagonist were presented to the panelists (last four samples were randomized across panelists). The panelists were asked to familiarize themselves with the earthy/moss odor quality from the REF jar first, then rate the pleasantness, earthy/moss odor intensity and overall odor intensity of the next four samples on a 0-10 linear scale. The inter-stimulus interval between the samples was two minutes to avoid adaptation.

Olfr93 = test: Cell-based OR activation assay (cAMP accumulation); set-up: species or system mouse; details: FIG. 6; OR-dependent accumulation of cAMP
Olfr1364 = test: Cell-based OR activation assay (cAMP accumulation); set-up: species or system mouse; details: FIG. 6; OR-dependent accumulation of cAMP
Olfr398 = test: Cell-based OR activation assay (cAMP accumulation); set-up: species or system mouse; details: FIG. 6; OR-dependent accumulation of cAMP
Olfr120 = test: Cell-based OR activation assay (cAMP accumulation); set-up: species or system mouse; details: FIG. 6; OR-dependent accumulation of cAMP
[2] = tested on: OR2W1 or OR1A1 olfactory receptor; test: 1-octen-3-ol olfactory receptor antagonist cell-based inhibitory dose-response assay; details: Table 3
Excerpt: Each cell line was screened with a volatile compound library for their inhibitory properties and potential 1-octen-3-ol smell inhibition.
Single concentration monitoring of the 1-octen-3-ol induced cell activity in the presence or absence of a test compound allowed for the identification of compounds with a putative suppression or inhibitory effect.

Olfr46 = test: Cell-based OR activation assay (cAMP accumulation); set-up: species or system mouse; details: FIG. 7; OR-dependent accumulation of cAMP
Excerpt: (§1) The detection method pertains to OR-dependent accumulation of cAMP in said cells, as a result of OR activation by transpirol.
(§2) In a further embodiment, to complete the deorphanization process, the candidate OR genes are further expressed in vitro for confirmation of activity against the compounds used to isolate the olfactory sensory neurons and other structurally-related compounds of interest. The mouse receptors identified from isolated olfactory neurons that respond to geonol, DMTS, 1-octen-3-ol, butyric acid, 3-methyl-2-hexenoic acid, 3-hydroxy-3-methyl-hexanoic acid or transpirol are modified at their N-terminus with short polypeptide sequences (e.g., FLAG® (SEQ ID NO: 48), Rho (SEQ ID NO: 50; 20 first amino acids of the bovine rhodopsin receptor), and/or Lucy (SEQ ID NO: 52; cleavable leucine-rich signal peptide sequence) tags), transiently expressed in HEK 293T cells, and stimulated separately with geonol, DMTS, 1-octen-3-ol, butyric acid, 3-methyl-2-hexenoic acid, 3-hydroxy-3-methyl-hexanoic acid or transpirol to confirm their identity as bona fide geonol, dimethyl trisulfide (DMTS), 1-octen-3-ol, butyric acid, 3-methyl-2-hexenoic acid, 3-hydroxy-3-methyl-hexanoic acid or transpirol receptors. In a further embodiment, an RTP1 gene can also be expressed in the cell lines whether through activation of the endogenous RTP1 gene or through transformation. […]

Olfr263 [3] = test: Cell-based OR activation assay (cAMP accumulation); set-up: species or system mouse; details: FIG. 7 and 8; OR-dependent accumulation of cAMP
Excerpt: as §1
(§3) The detection method pertains to OR-dependent accumulation of cAMP in said cells, as a result of OR activation by 3-methyl-2-hexenoic acid.
as §2, with “receptors.” for “receptors. In a further embodiment, an RTP1 gene can also be expressed in the cell lines whether through activation of the endogenous RTP1 gene or through transformation.”

OR2W1 [4] = target: T2, OR2W1 (Homo sapiens, UniProt Q9Y3N9, M81V); test: Cell-based OR activation assay (cAMP accumulation); set-up: expressed in transfected cells; host or cells: HEK293T expressing human Golf; details: FIG. 7 and 8; OR-dependent accumulation of cAMP
T2 sequence (Q9Y3N9 1-320 M81V): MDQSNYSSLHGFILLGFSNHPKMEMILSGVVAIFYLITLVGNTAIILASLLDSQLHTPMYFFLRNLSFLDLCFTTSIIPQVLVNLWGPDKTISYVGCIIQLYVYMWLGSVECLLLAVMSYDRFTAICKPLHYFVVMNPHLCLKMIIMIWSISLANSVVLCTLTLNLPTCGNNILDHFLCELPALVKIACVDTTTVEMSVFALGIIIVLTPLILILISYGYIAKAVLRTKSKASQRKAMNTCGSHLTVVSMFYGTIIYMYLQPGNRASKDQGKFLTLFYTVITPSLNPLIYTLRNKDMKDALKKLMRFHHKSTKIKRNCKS
Excerpt: as §1, §3
(§4) In a further embodiment, to complete the deorphanization process, the candidate OR genes are further expressed in vitro for confirmation of activity against the compounds used to isolate the olfactory sensory neurons and other structurally-related compounds of interest. […]
(§5) In the second method, a panel of odorant receptors comprising the 400 putatively functional human receptor repertoire were transfected into a cultured human HEK293T cell line described in WO2014/210585 expressing Human olfactory G-protein alpha subunit (Golf—SEQ. ID No. 49) and coupled to a cyclicAMP reporter. Said panel of in vitro odorant receptors were exposed to MCSs and the level of cAMP signal was measured for each receptor. […]

[5] = target: T3, OR51E1 olfactory receptor (Homo sapiens, UniProt Q8TCB6, K299R); test: Butyric acid olfactory receptor antagonist cell-based inhibitory dose-response assay; details: Table 4; for Inhibition (%): butyric acid at EC94; for IC50: butyric acid at single activating concentration (EC94)
T3 construct: expressed in transfected cells
T3 sequence (Q8TCB6 2-318 K299R limits assumed): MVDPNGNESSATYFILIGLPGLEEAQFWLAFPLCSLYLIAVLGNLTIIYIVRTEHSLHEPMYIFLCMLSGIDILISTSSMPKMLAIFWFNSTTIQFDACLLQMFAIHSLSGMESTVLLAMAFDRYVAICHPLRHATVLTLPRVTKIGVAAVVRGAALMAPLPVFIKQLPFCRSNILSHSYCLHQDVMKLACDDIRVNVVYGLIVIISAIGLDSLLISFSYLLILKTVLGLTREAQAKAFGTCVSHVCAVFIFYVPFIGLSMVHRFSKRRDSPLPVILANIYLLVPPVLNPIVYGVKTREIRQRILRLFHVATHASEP

OR51I2 = target: T4, OR51I2 (Homo sapiens, UniProt Q9H344); test: 3-methyl-2-hexenoic acid concentration-dependent activation of OR51I2: OR-dependent cAMP accumulation in a cell-based assay (functional dose-response); details: agonist, human OR51I2 (SEQ ID NO: 20), HEK293T cells expressing Golf, FIG. 8
T4 construct: expressed in transfected cells; host or cells: HEK293T
Excerpt: as §3, §4, §5

OR2W1 [6] = target: T2, OR2W1; test: Concentration-dependent activation of OR2W1: OR-dependent cAMP accumulation in a cell-based assay (functional dose-response); set-up: expressed in transfected cells; host or cells: HEK293T; details: agonist 3-methyl-2-hexenoic acid, human OR2W1 (SEQ ID NO: 2), HEK293T cells expressing Golf, FIG. 8
Excerpt: as §1, §3, §4, §5

OR5112 = target: T5, OR5112 (Homo sapiens, UniProt Q9H344); test: Cell-based OR activation assay (cAMP accumulation); details: FIG. 8; OR-dependent accumulation of cAMP
T5 construct: expressed in transfected cells; host or cells: HEK293T expressing human Golf
Excerpt: as §3, §4, §5

Olfr641 [7] = target: Olfr641 (Mus musculus, UniProt Q8VGX6); test: 3-methyl-2-hexenoic acid concentration-dependent activation of Olfr641: OR-dependent cAMP accumulation in a cell-based assay (functional dose-response); details: agonist, mouse Olfr641 (SEQ ID NO: 34), N-terminal FLAG/Rho/Lucy tags, HEK 293T cells, Gαolf, FIG. 8
Excerpt: as §3, §4
(§6) Neurons that were activated by DMTS were further isolated for full transcriptome analysis to identify the responsive odorant receptor. […] Amplified cDNA was then used to generate an Illumina cDNA library for Next-Generation-Sequencing and the generation of 100 base pair single read sequences. […]

Olfr263 [8] = target: Olfr263 (Mus musculus, UniProt Q7TQT8); test: Concentration-dependent activation of Olfr263: OR-dependent cAMP accumulation in a cell-based assay (functional dose-response); details: agonist 3-methyl-2-hexenoic acid, mouse Olfr263 (SEQ ID NO: 22), N-terminal FLAG/Rho/Lucy tags, HEK 293T cells, Gαolf, FIG. 8
Excerpt: as §1, §3, §4, §6

Olfr641 [9] = test: Cell-based OR activation assay (cAMP accumulation); set-up: species or system mouse; details: FIG. 8; OR-dependent accumulation of cAMP
Excerpt: as §3, §2

Chain of OR11A1 (Q9GZK7 whole entry): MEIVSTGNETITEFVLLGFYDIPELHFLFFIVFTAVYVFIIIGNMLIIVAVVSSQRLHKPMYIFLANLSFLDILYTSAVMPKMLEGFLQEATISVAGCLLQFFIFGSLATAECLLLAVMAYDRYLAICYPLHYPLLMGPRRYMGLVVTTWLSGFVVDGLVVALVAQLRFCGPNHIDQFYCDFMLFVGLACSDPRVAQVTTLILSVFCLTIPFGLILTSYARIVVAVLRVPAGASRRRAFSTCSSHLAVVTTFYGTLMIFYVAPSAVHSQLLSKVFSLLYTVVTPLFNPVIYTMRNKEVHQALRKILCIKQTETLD
Chain of Olfr641 (Mus musculus, UniProt Q8VGX6) (Q8VGX6 1-312): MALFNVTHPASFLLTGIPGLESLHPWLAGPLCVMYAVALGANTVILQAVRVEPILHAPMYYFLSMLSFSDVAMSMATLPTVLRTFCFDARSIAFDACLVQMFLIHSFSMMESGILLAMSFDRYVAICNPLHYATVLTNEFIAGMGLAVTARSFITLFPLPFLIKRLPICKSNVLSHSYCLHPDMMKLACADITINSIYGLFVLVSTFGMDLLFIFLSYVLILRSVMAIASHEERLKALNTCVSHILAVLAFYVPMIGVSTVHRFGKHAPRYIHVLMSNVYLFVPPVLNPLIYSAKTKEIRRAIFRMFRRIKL
Chain of Olfr263 (Mus musculus, UniProt Q7TQT8) (Q7TQT8 1-317): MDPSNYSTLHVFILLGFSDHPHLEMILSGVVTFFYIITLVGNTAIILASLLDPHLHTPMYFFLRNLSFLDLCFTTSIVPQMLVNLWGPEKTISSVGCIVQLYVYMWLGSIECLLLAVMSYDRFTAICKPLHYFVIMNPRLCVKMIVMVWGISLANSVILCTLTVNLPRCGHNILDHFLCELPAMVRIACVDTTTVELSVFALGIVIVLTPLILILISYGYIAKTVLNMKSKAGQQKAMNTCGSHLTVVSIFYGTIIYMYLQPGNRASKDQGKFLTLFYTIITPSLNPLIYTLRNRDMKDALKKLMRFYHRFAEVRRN
T4 sequence (Q9H344 whole entry): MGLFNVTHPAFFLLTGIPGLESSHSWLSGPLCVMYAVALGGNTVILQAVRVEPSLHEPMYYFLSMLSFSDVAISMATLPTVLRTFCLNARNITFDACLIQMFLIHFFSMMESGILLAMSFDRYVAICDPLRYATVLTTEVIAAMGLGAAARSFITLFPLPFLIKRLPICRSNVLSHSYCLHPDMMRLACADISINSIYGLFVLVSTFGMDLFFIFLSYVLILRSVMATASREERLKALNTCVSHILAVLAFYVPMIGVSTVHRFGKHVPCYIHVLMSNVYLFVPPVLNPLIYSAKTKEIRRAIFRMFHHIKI
T5 sequence (Q9H344 whole entry): as above

CC1CCCC2(C)CCCCC12O [geonol, (4S,4aS,8aR)-4,8a-Dimethyl-1,2,3,4,5,6,7,-octahydronaphthalen-4a-ol]
activation of OR11A1 (OR11A1): concentration-dependent and specific activation
activation of Olfr339 (Olfr339): concentration-dependent and specific activation
activation of Olfr96 (Olfr96): concentration-dependent and specific activation
activation of Olfr1487 (Olfr1487): concentration-dependent and specific activation
activation of Olfr1322 (Olfr1322): concentration-dependent and specific activation

CCCCCC/C=C/C=O [nonylenic aldehyde]
% Inhibition [1]: 30%

isopropyl quinoline
% Remaining in human sensory tests (human sensory panel): 110%

C=CC(O)CCCCC (stereo not shown) [1-octen-3-ol]
activation of Olfr93 (Olfr93): concentration-dependent and specific activation
activation of Olfr1364 (Olfr1364): concentration-dependent and specific activation
activation of Olfr398 (Olfr398): concentration-dependent and specific activation
activation of Olfr120 (Olfr120): concentration-dependent and specific activation

isobutylquinoline
IC50 ([2]; 1-octen-3-ol at single activating concentration (EC50), receptor (OR2W1 or OR1A1) not stated per compound): > 600 µM
% Inhibition ([2]; normalized to baseline agonist activity, 1-octen-3-ol at EC50): 30.14%
% Inhibition [1]: 45%
% Remaining in human sensory tests (human sensory panel): 52* %

CCCC(C)(S)CCO (stereo not shown) [transpirol, 3-methyl-3-sulfanylhexanol]
activation of Olfr46 (Olfr46): concentration-dependent and specific activation
activation of Olfr263 (Olfr263 [3]): concentration-dependent and specific activation
activation of OR2W1 (OR2W1 [4]): concentration-dependent and specific activation

OCCc1ccccc1 [phenylethylol]
% Remaining in human sensory tests (human sensory panel): 58%

CC(=O)OC1C(C)(C)CCC12CC=CC2 (stereo not shown) [(8,8-dimethylspiro[4.4]non-2-en-9-yl) acetate]
Inhibition (%) [5]: 107%
IC50 [5]: 488 µM

CCCC(C)=CC(=O)O [3-methyl-2-hexenoic acid]
EC50 (OR51I2): 13.9 µM
EC50 (OR2W1 [6]): 214 µM
activation of OR5112 (OR5112): concentration-dependent and specific activation
EC50 (Olfr641 [7]): 1.75 µM
activation of Olfr263 (Olfr263 [3]): concentration-dependent and specific activation
EC50 (Olfr263 [8]): 183 µM
activation of OR2W1 (OR2W1 [4]): concentration-dependent and specific activation
activation of Olfr641 (Olfr641 [9]): concentration-dependent and specific activation

CC1C=CCC12CCCC(C)(C)C2=O (stereo not shown) [4,9,9-trimethylspiro[4.5]dec-2-en-10-one]
Inhibition (%) [5]: 102%
IC50 [5]: 268 µM

CC(=O)OC1C(C)(C)CCCC12CC(C)=CC2C (stereo not shown) [(2,4,9,9-tetramethylspiro[4.5]dec-2-en-10-yl) acetate]
Inhibition (%) [5]: 131%
IC50 [5]: 34.8 µM

CC(=O)OC1C(C)(C)CCCC12CC(C)C(C)C2 (stereo not shown) [(2,3,9,9-tetramethylspiro[4.5]decan-10-yl) acetate]
Inhibition (%) [5]: 62%
IC50 [5]: 51.4 µM

CC(=O)OC1C(C)(C)CCCC12CC=CC2C (stereo not shown) [(4,9,9-trimethylspiro[4.5]dec-2-en-10-yl) acetate]
Inhibition (%) [5]: 106%
IC50 [5]: 48.5 µM

CC(=O)OCCc1ccccc1 [phenyl ethyl acetate]
% Remaining in human sensory tests (human sensory panel): 47* %

CC1CC2(CCCC(C)(C)C2O)CC1C (stereo not shown) [2,3,9,9-tetramethylspiro[4.5]decan-10-ol]
Inhibition (%) [5]: 12%
IC50 [5]: 120 µM

— patent US20250327793A1, “METHODS OF IDENTIFYING COMPOUNDS THAT MODULATE LAUNDRY MALODOR, MOLDY MALODOR, OR SWEAT MALODOR” (Firmenich SA, priority 2017, published 2025)
